Measured values taken from the NIST ThermoML archive (doi:10.1021/je800110r).

Conditions: 293.15 K, Liquid, Vibrating tube method

CCCCCCCCCC [decane]
Conditions | mass density [kg/m3]
17005 kPa | 742.2
17022 kPa | 742.3
17041 kPa | 742.3
17058 kPa | 742.3
17074 kPa | 742.3
17089 kPa | 742.1
17103 kPa | 742.4
17122 kPa | 742.2
17142 kPa | 742.2
17156 kPa | 742.3
17176 kPa | 742.3
17193 kPa | 742.3
17207 kPa | 742.3
17227 kPa | 742.3
17240 kPa | 742.3
17257 kPa | 742.4
17274 kPa | 742.5
17296 kPa | 742.3
17313 kPa | 742.4
17338 kPa | 742.4
17352 kPa | 742.4
17370 kPa | 742.4
17390 kPa | 742.4
17410 kPa | 742.4
17425 kPa | 742.4
17440 kPa | 742.5
17453 kPa | 742.5
17471 kPa | 742.5
17486 kPa | 742.5
17508 kPa | 742.5
17521 kPa | 742.6
17538 kPa | 742.6
17558 kPa | 742.6
17571 kPa | 742.6
17589 kPa | 742.5
17610 kPa | 742.6
17627 kPa | 742.7
17648 kPa | 742.6
17663 kPa | 742.6
17679 kPa | 742.6
17699 kPa | 742.6
17715 kPa | 742.7
17736 kPa | 742.7
17752 kPa | 742.7
17772 kPa | 742.8
17787 kPa | 742.6
17806 kPa | 742.7
17828 kPa | 742.8
17849 kPa | 742.7
17868 kPa | 742.8
17883 kPa | 742.8
17899 kPa | 742.8
17913 kPa | 742.8
17931 kPa | 742.9
17955 kPa | 743
17969 kPa | 742.9
17985 kPa | 743
18004 kPa | 742.9
18017 kPa | 742.9
18036 kPa | 742.9
18058 kPa | 743
18072 kPa | 743
18088 kPa | 743
18102 kPa | 742.9
18118 kPa | 742.9
18140 kPa | 743
18162 kPa | 742.9
18178 kPa | 743.2
18195 kPa | 743
18214 kPa | 743
18233 kPa | 743
18256 kPa | 742.9
18273 kPa | 743.2
18295 kPa | 743
18317 kPa | 743
18342 kPa | 743.1
18359 kPa | 743.1
18381 kPa | 743.1
18400 kPa | 743.1
18418 kPa | 743.2
18434 kPa | 743.1
18457 kPa | 743.3
18474 kPa | 743.3
18500 kPa | 743.2
18520 kPa | 743.3
18538 kPa | 743.2
18560 kPa | 743.3
18581 kPa | 743.3
18599 kPa | 743.3
18622 kPa | 743.3
18645 kPa | 743.4
18663 kPa | 743.4
18686 kPa | 743.3
18701 kPa | 743.3
18728 kPa | 743.3
18745 kPa | 743.3
18766 kPa | 743.4
18793 kPa | 743.4
18811 kPa | 743.5
18832 kPa | 743.4
18849 kPa | 743.4
18871 kPa | 743.5
18888 kPa | 743.5
18912 kPa | 743.5
18936 kPa | 743.6
18955 kPa | 743.5
18976 kPa | 743.6
19001 kPa | 743.6
19019 kPa | 743.6
19043 kPa | 743.6
19062 kPa | 743.5
19077 kPa | 743.5
19096 kPa | 743.7
19115 kPa | 743.7
19134 kPa | 743.7
19153 kPa | 743.7
19172 kPa | 743.6
19191 kPa | 743.6
19259 kPa | 743.8
19307 kPa | 743.7
19325 kPa | 743.7
19340 kPa | 743.7
19353 kPa | 743.9
19374 kPa | 743.8
19395 kPa | 743.9
19408 kPa | 743.8
19424 kPa | 743.9
19451 kPa | 743.9
19464 kPa | 743.9
19480 kPa | 743.8
19495 kPa | 743.8
19511 kPa | 743.8
19524 kPa | 743.8
19536 kPa | 743.9
19556 kPa | 743.9
19575 kPa | 744
19589 kPa | 743.9
19602 kPa | 743.9
19616 kPa | 743.9
19630 kPa | 743.8
19643 kPa | 744
19662 kPa | 744
19678 kPa | 743.9
19692 kPa | 744
19712 kPa | 744
19726 kPa | 744
19742 kPa | 744
19763 kPa | 744
19775 kPa | 744
19793 kPa | 744.1
19810 kPa | 744.1
19824 kPa | 744.2
19838 kPa | 744.1
19852 kPa | 744.1
19866 kPa | 744.1
19883 kPa | 744.1
19897 kPa | 744.1
19914 kPa | 744.2
19935 kPa | 744.2
19950 kPa | 744.2
19969 kPa | 744.4
19983 kPa | 744.2
19999 kPa | 744.2
20016 kPa | 744.2
20035 kPa | 744.3
20055 kPa | 744.2
20072 kPa | 744.3
20084 kPa | 744.3
20103 kPa | 744.2
20120 kPa | 744.2
20137 kPa | 744.3
20152 kPa | 744.2
20165 kPa | 744.3
20181 kPa | 744.2
20196 kPa | 744.4
20218 kPa | 744.4
20233 kPa | 744.4
20251 kPa | 744.3
20263 kPa | 744.5
20288 kPa | 744.3
20306 kPa | 744.4
20326 kPa | 744.3
20343 kPa | 744.4
20365 kPa | 744.5
20383 kPa | 744.5
20398 kPa | 744.5
20413 kPa | 744.5
20428 kPa | 744.5
20450 kPa | 744.6
20470 kPa | 744.5
20485 kPa | 744.5
20503 kPa | 744.6
20519 kPa | 744.5
20535 kPa | 744.6
20555 kPa | 744.6
20576 kPa | 744.6
20591 kPa | 744.6
20611 kPa | 744.6
20636 kPa | 744.6
20654 kPa | 744.6
20670 kPa | 744.7
20688 kPa | 744.8
20711 kPa | 744.7
20727 kPa | 744.6
20743 kPa | 744.7
20764 kPa | 744.6
20785 kPa | 744.7
20803 kPa | 744.7
20822 kPa | 744.7
20837 kPa | 744.9
20856 kPa | 744.7
20872 kPa | 744.8
20893 kPa | 744.8
20909 kPa | 744.8
20930 kPa | 744.9
20946 kPa | 744.9
20964 kPa | 744.9
20980 kPa | 744.9
20999 kPa | 745
21015 kPa | 744.9
21039 kPa | 744.9
21058 kPa | 744.9
21074 kPa | 744.8
21093 kPa | 744.9
21109 kPa | 745
21128 kPa | 744.9
21144 kPa | 745
21163 kPa | 745
21179 kPa | 744.9
21196 kPa | 745.1
21212 kPa | 745
21228 kPa | 744.9
21247 kPa | 744.9
21266 kPa | 745.1
21283 kPa | 745.1
21304 kPa | 745
21320 kPa | 745.2
21339 kPa | 745.1
21361 kPa | 745.1
21381 kPa | 745.2
21397 kPa | 745.2
21417 kPa | 745.2
21436 kPa | 745.1
21453 kPa | 745.1
21470 kPa | 745.2
21492 kPa | 745
21514 kPa | 745.1
21534 kPa | 745.2
21559 kPa | 745.2
21576 kPa | 745.2
21596 kPa | 745.3
21619 kPa | 745.3
21641 kPa | 745.2
21661 kPa | 745.2
21681 kPa | 745.2
21704 kPa | 745.4
21724 kPa | 745.3
21747 kPa | 745.4
21764 kPa | 745.4
21789 kPa | 745.5
21810 kPa | 745.3
21827 kPa | 745.3
21847 kPa | 745.5
21865 kPa | 745.5
21885 kPa | 745.4
21900 kPa | 745.3
21924 kPa | 745.5
21947 kPa | 745.5
21965 kPa | 745.4
21983 kPa | 745.4
22000 kPa | 745.4
22018 kPa | 745.5
22037 kPa | 745.5
22053 kPa | 745.5
